From patent publication US10435355B2, “Inhibitors of fatty acid amide hydrolase (FAAH) enzyme with improved oral bioavailability and their use as medicaments” (THE REGENTS OF THE UNIVERSITY OF CALIFORNIA, priority 2014, dated 2019)

Experiment: Pharmacokinetic experiment (PO and IV) in cannulated rats
Format: in vivo, Sprague-Dawley rats
Conditions: rat, plasma
Description: Pharmacokinetic Experiment and Analysis
Compounds were administered orally (PO) and intravenously (IV) to cannulated Sprague-Dawley rats at 10 and 3 mg/kg, respectively. Vehicle was: PEG400/Tween 80/Saline solution at 10/10/80 (% in volume), respectively. Three animals per dose were treated. Blood samples at 0, 15, 30, 60, 120, 240, 480 and 1440 min after administration were collected for PO arm. Blood samples at 0, 5, 15, 30, 60, 120 and 240 min after administration were collected for IV arm. Plasma was separated from blood by centrifugation for 15 min at 3500 rpm a 4° C., collected in a Eppendorf tube and frozen (−80° C.). Control animals treated with vehicle only were also included in the experimental protocol.
Preparation of Samples, Standard Curve and QC Samples for UPLC-MS Analysis
Samples were thawed in an ice bath and after a short centrifugation transferred (50 μL) into a 96-deepwell plate and added with 150 μL of acetonitrile spiked with 200 nM Warfarin (the Internal Standard, I.S.). After agitation (3 min) the plate was centrifuged at 3000 g for 10 min at 4° C. […]
Compounds plasma levels were monitored on a Xevo TQ UPLC-MS/MS system (Waters, Milford USA), using the calibration curve and the internal standard (Warfarin). […] Plasma levels data were analyzed using PKSolutions excel application (Summit Research Service, USA) to derive the most important pharmacokinetic parameters. […]

In the case of CNC(=O)c1cccc(-c2cccc(OC(=O)NC3CCCCC3)c2)c1, the “AUC PO (10 mg/kg)” value is reported as 90205 ng·min/mL.
